{
  "source": "ChEMBL document CHEMBL3352542",
  "about": "“Synthesis, biological evaluation and molecular modeling study of 2-(1,3,4-thiadiazolyl-thio and 4-methyl-thiazolyl-thio)-quinazolin-4-ones as a new class of DHFR inhibitors” (Bioorg Med Chem Lett, 2014)",
  "key": {"T47D": {"system": "T47D", "experiment": "Growth inhibition of human T47D cells at 10 uM after 48 hrs", "assay_type": "functional", "conditions": "read-out: GI"}, "[1]": {"experiment": "Growth inhibition of human HOP92 cells at 10 uM after 48 hrs", "assay_type": "functional", "conditions": "HOP-92, 48 h, read-out: GI"}, "[2]": {"experiment": "Growth inhibition of human UACC62 cells at 10 uM after 48 hrs", "assay_type": "functional", "conditions": "UACC-62, 48 h, read-out: GI"}, "[3]": {"experiment": "Growth inhibition of human PC3 cells at 10 uM after 48 hrs", "assay_type": "functional", "conditions": "PC-3, 48 h, read-out: GI"}, "Pseudomonas aeruginosa": {"system": "Pseudomonas aeruginosa", "experiment": "Antimicrobial activity against Pseudomonas aeruginosa assessed as inhibition zone at 200 ug/disk after 24 hrs by disc-diffusion method", "assay_type": "functional", "conditions": "read-out: IZ"}, "K562": {"system": "K562", "experiment": "Growth inhibition of human K562 cells at 10 uM after 48 hrs", "assay_type": "functional", "conditions": "K562, 48 h, read-out: GI"}, "[4]": {"experiment": "Growth inhibition of human OVCAR4 cells at 10 uM after 48 hrs", "assay_type": "functional", "conditions": "OVCAR-4, 48 h, read-out: GI"}, "SR": {"system": "SR", "experiment": "Growth inhibition of human SR cells at 10 uM after 48 hrs", "assay_type": "functional", "conditions": "read-out: GI"}, "Dihydrofolate reductase": {"biological_target": "T1, Dihydrofolate reductase (Bos taurus, UniProt P00376)", "T1 sequence (P00376 whole entry)": "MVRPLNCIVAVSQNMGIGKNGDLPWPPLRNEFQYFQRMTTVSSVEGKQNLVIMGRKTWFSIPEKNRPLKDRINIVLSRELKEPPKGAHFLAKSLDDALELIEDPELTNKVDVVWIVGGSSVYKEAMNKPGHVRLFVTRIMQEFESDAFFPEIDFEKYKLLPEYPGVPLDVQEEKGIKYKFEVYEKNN", "experiment": "Inhibition of bovine liver DHFR"}, "[5]": {"experiment": "Growth inhibition of human UO31 cells at 10 uM after 48 hrs", "assay_type": "functional", "conditions": "UO-31, 48 h, read-out: GI"}, "SF-268": {"system": "SF-268", "experiment": "Growth inhibition of human SF268 cells at 10 uM after 48 hrs", "assay_type": "functional", "conditions": "SF-268, 48 h, read-out: GI"}, "NCI-H226": {"system": "NCI-H226", "experiment": "Growth inhibition of human NCI-H226 cells at 10 uM after 48 hrs", "assay_type": "functional", "conditions": "NCI-H226, 48 h, read-out: GI"}, "[6]": {"experiment": "Growth inhibition of human LOXIMVI cells at 10 uM after 48 hrs", "assay_type": "functional", "conditions": "LOX IMVI, read-out: GI"}, "Malme-3M": {"system": "Malme-3M", "experiment": "Growth inhibition of human MALME-3M cells at 10 uM after 48 hrs", "assay_type": "functional", "conditions": "read-out: GI"}, "Bacillus subtilis [7]": {"system": "Bacillus subtilis", "experiment": "Antimicrobial activity against Bacillus subtilis assessed as inhibition zone at 200 ug/disk after 24 hrs by disc-diffusion method", "assay_type": "functional", "conditions": "read-out: IZ"}, "Bacillus subtilis [8]": {"system": "Bacillus subtilis", "experiment": "Antimicrobial activity against Bacillus subtilis assessed as inhibition of visible growth after 24 hrs by disc-diffusion method", "assay_type": "functional, organism-based"}, "[9]": {"experiment": "Growth inhibition of human RPMI8226 cells at 10 uM after 48 hrs", "assay_type": "functional", "conditions": "RPMI-8226, 48 h, read-out: GI"}, "Staphylococcus aureus [10]": {"system": "Staphylococcus aureus", "experiment": "Antimicrobial activity against Staphylococcus aureus assessed as inhibition zone at 200 ug/disk after 24 hrs by disc-diffusion method", "assay_type": "functional", "conditions": "read-out: IZ"}, "Escherichia coli": {"system": "Escherichia coli", "experiment": "Antimicrobial activity against Escherichia coli assessed as inhibition zone at 200 ug/disk after 24 hrs by disc-diffusion method", "assay_type": "functional", "conditions": "read-out: IZ"}, "NCI-H23": {"system": "NCI-H23", "experiment": "Growth inhibition of human NCI-H23 cells at 10 uM after 48 hrs", "assay_type": "functional", "conditions": "NCI-H23, 48 h, read-out: GI"}, "[11]": {"experiment": "Growth inhibition of human OVCAR3 cells at 10 uM after 48 hrs", "assay_type": "functional", "conditions": "OVCAR-3, 48 h, read-out: GI"}, "NCI-H522": {"system": "NCI-H522", "experiment": "Growth inhibition of human NCI-H522 cells at 10 uM after 48 hrs", "assay_type": "functional", "conditions": "NCI-H522, 48 h, read-out: GI"}, "Candida albicans": {"system": "Candida albicans", "experiment": "Antimicrobial activity against Candida albicans assessed as inhibition zone at 200 ug/disk after 24 hrs by disc-diffusion method", "assay_type": "functional", "conditions": "read-out: IZ"}, "Staphylococcus aureus [12]": {"system": "Staphylococcus aureus", "experiment": "Antimicrobial activity against Staphylococcus aureus assessed as inhibition of visible growth after 24 hrs by disc-diffusion method", "assay_type": "functional, organism-based"}, "[13]": {"experiment": "Growth inhibition of human MOLT4 cells at 10 uM after 48 hrs", "assay_type": "functional", "conditions": "MOLT-4, 48 h, read-out: GI"}},
  "note": "pIC50: −log10 of the molar value. Activity calls are given as the source filed them. The rule behind the calls is not given here.",
  "data": [
    {"compound": "Cc1nc(N)sc1Sc1nc2ccc(Cl)cc2c(=O)n1Cc1ccccc1", "values": [
      {"measurement": "inhibition of growth at 10 µM", "setting": "T47D", "value": 14.7, "unit": "%"},
      {"measurement": "inhibition of growth at 10 µM", "setting": "[1]", "value": 16.8, "unit": "%"},
      {"measurement": "inhibition of growth at 10 µM", "setting": "[2]", "value": 15.2, "unit": "%"},
      {"measurement": "inhibition of growth at 10 µM", "setting": "[3]", "value": 15.8, "unit": "%"},
      {"measurement": "zone of inhibition at 200 µg/disc", "setting": "Pseudomonas aeruginosa", "value": 8, "unit": "mm"},
      {"measurement": "inhibition of growth at 10 µM", "setting": "K562", "value": 17.6, "unit": "%"},
      {"measurement": "inhibition of growth at 10 µM", "setting": "[4]", "value": 20.9, "unit": "%"},
      {"measurement": "inhibition of growth at 10 µM", "setting": "SR", "value": 16.1, "unit": "%"},
      {"measurement": "pIC50", "setting": "Dihydrofolate reductase", "value": 5.30},
      {"measurement": "inhibition of growth at 10 µM", "setting": "[5]", "value": 36.4, "unit": "%"},
      {"measurement": "inhibition of growth at 10 µM", "setting": "SF-268", "value": 13.3, "unit": "%"},
      {"measurement": "inhibition of growth at 10 µM", "setting": "NCI-H226", "value": 10.4, "unit": "%"},
      {"measurement": "inhibition of growth at 10 µM", "setting": "[6]", "value": 23.2, "unit": "%"},
      {"measurement": "inhibition of growth at 10 µM", "setting": "Malme-3M", "value": 15.9, "unit": "%"},
      {"measurement": "zone of inhibition at 200 µg/disc", "setting": "Bacillus subtilis [7]", "value": 19, "unit": "mm"},
      {"measurement": "Activity", "setting": "Bacillus subtilis [8]", "value": "Active"},
      {"measurement": "inhibition of growth at 10 µM", "setting": "[9]", "value": 20.8, "unit": "%"},
      {"measurement": "zone of inhibition at 200 µg/disc", "setting": "Staphylococcus aureus [10]", "value": 18, "unit": "mm"},
      {"measurement": "zone of inhibition at 200 µg/disc", "setting": "Escherichia coli", "value": 12, "unit": "mm"},
      {"measurement": "inhibition of growth at 10 µM", "setting": "NCI-H23", "value": 13.6, "unit": "%"},
      {"measurement": "inhibition of growth at 10 µM", "setting": "[11]", "value": 14.9, "unit": "%"},
      {"measurement": "inhibition of growth at 10 µM", "setting": "NCI-H522", "value": 35.4, "unit": "%"},
      {"measurement": "zone of inhibition at 200 µg/disc", "setting": "Candida albicans", "value": 8, "unit": "mm"},
      {"measurement": "Activity", "setting": "Staphylococcus aureus [12]", "value": "Active"},
      {"measurement": "inhibition of growth at 10 µM", "setting": "[13]", "value": 16, "unit": "%"}
    ]}
  ]
}
